According to ChEMBL document CHEMBL1275330, “Rational design, synthesis, and evaluation of new selective inhibitors of microbial class II (zinc dependent) fructose bis-phosphate aldolases” (J Med Chem, 2010):

Tests used:
Type in all cases: tissue-based
Details in all cases: Muscle tissue
[1] = Selectivity ratio of Km/ki for rabbit muscle […] Fba to Km/ki for Candida albicans zinc dependent class 2 Fba
[2] = Selectivity ratio of Km/ki for rabbit muscle […] Fba to Km/ki for Mycobacterium tuberculosis zinc dependent class 2 Fba
[3] = Selectivity ratio of Km/ki for rabbit muscle […] Fba to Km/ki for Helicobacter pylori recombinant zinc dependent class 2 Fba

Compound | Ratio [1] | Ratio [2] | Ratio [3]
O=C(COP(=O)(O)O)N(O)CCCO | 34000 | 20000 | 600
CCCCCCCCCCCC(=O)OCCCCN(O)C(=O)COP(=O)(O)O | 475 | 305 | 19
O=C(COP(=O)(O)O)N(O)CCCOP(=O)(O)O | 7500 | 28000 | 23000
